Laboratory results reported in US10179160B2, “Therapeutic compositions for the treatment of dry eye disease” (SCHEPENS EYE RESEARCH INSTITUTE, priority 2010, dated 2019).

Columns and labels:
DED mice [1] = experiment: Corneal fluorescein staining / clinical signs in experimental dry eye murine model; assay type: in vivo; details: for clinical signs of DED / disease severity: anti-VEGF-C-treated vs untreated DED mice
From the text: (§1) Eight to ten week-old female C57BLI6 mice (Charles River Laboratory, Wilmington, Mass.) were used in accordance with the standards in the ARVO Statement for the Use of Animals in Ophthalmic and Vision Research. The research protocol was approved by the Schepens Eye Research Institute Animal Care and Use Committee. Dry eye was induced in murine eyes using a Controlled Environment Chamber (CEC) which exposes the mice to high-flow desiccated air. To achieve maximum ocular surface dryness, the conditions in CEC were supplemented with topical application of 1% atropine sulfate (Falcon Pharma, Fort Worth, Tex.) twice for the first 48 hours and subcutaneous injections of 0.1 ml of 5 mg/ml of scopolamine hydrobromide (Sigma-Aldrich, St. Louis, Mo.) three times a day, for the entire duration of the experiment.
(§2) Anti-VEGF-C antibodies (VGX-100; Vegenics Limited, Australia) were administered intraperitonealy daily from day 1 to day 10 to DED mice. Mice were assessed clinically using corneal fluorescent staining. Tissues from cornea, conjunctiva and draining lymph nodes were examined for cellular and molecular pathological changes.
Corneal lymphatics play an important role in mediating the corneal inflammation in dry eyes. Experiments: To validate this, inhibition of corneal neolymphangiogenesis was performed in a well characterized mouse model of DED described above. To see if inhibition of corneal neolymphangiogenesis could decrease ocular surface inflammation, anti-VEGF-C antibodies were administered i.p. daily from day −1 to day 10 to DED mice and assessed clinically using corneal fluorescein staining.
Methods (as described previously): Induction of Dry Eye Disease. Experimental Dry Eye Murine Model. Assessment of Corneal Surface: Corneal Fluorescein Staining. Immunohistochemistry: Monocyte/macrophage marker—CD11b; Pan-endothelial marker—CD31; Lymphatic endothelial marker—LYVE-1; Blood vessels: CD31^hi/LYVE-1; Lymph vessels: CD31^lo/LYVE-1^hi. Morphometry of Lymphangiogenesis: Automated image analysis program written using Mat lab. Lymphatic Area (LA)—total surface area of the lymphatic vessels when projected into the plane of the image. Lymphatic Caliber (LC)—measure of the diameters of the lymphatic vessels.
Anti-VEGF-C antibody and treatment regimen. Experimental design: Three groups: Normal, DE group treated with IP normal Saline (Untreated) and DE group treated with anti-VEGF-C antibody (VGX-100; a gift from Vegenics, Australia). Daily IP application of anti-VEGF-C antibody/Normal saline from day −1 to day 13. Dose: […] (20 mg/kg) in […] of Normal Saline.

DED mice [2] = experiment: Real-time PCR of proinflammatory cytokines in conjunctiva of DED mice; assay type: in vivo
From the text: as §1
(§3) Five mice (10 eyes) were included in each group. Two corneas were pooled together to equal as one sample and stored at −80′C in Trizol (Invitrogen, Carlsbad, Calif.; catalog No. 15596026) until future use. Total RNA was isolated from these corneas using the RNeasy microkit (Qiagen, Valencia, Calif.; catalog No. 74004). Equal amounts of RNA were used to synthesize cDNA using SuperScript™ III Reverse Trancriptase (Invitrogen, Carlsbad, Calif.; catalog No. 18080) according to the manufacturer's recommendations. Real-Time PCR was performed using FAM-MGB dye labeled predesigned primers (Applied Biosystem, Foster City, Calif.) for GAPDH (assay ID.Mm999999 15_g1), VEGF-A (Mm00437304_m1), VEGF-C (Mrn00437313_m1), VEGF-D (Mm00438965_m1), VEGFR-2 (Mm00440099_m1), VEGFR-3 (Mm00433337_m1). 2.5 μl of cDNA was loaded in each well and assays were performed in duplicate. The GAPDH gene was used as the endogenous reference for each reaction. The results were normalized by the cycle threshold (CT) of GAPDH and the relative mRNA level in the normal mice was used as the normalized control.
as §2
(§4) Real time PCR was performed to quantify expression of different VEGF growth factors (VEGF-A, VEGF-C, VEGF-D) and their receptors (VEGFR-2, VEGFR-3) in the cornea at days 6, 10 and 14 (FIG. 8) and to determine the levels of proinflammatory cytokines.

DED mice [3] = experiment: Real-time PCR of IL-17 and IFN-γ in draining lymph nodes of DED mice; assay type: in vivo; details: anti-VEGF-C treated vs untreated DED mice
From the text: as §1
Five mice (10 eyes) were included in each group. […]
(§5) Anti-VEGF-C antibodies (VGX-100; Vegenics Limited, Australia) were administered intraperitonealy daily from day 1 to day 10 to DED mice. Mice were assessed clinically using corneal fluorescent staining. […]
as §4

DED mice [4] = experiment: Enumeration of CD11b+ cells in DED corneas (immunohistochemistry); assay type: in vivo
From the text: (§6) Eight to ten week-old female C57BLI6 mice (Charles River Laboratory, Wilmington, Mass.) were used in accordance with the standards in the ARVO Statement for the Use of Animals in Ophthalmic and Vision Research. The research protocol was approved by the Schepens Eye Research Institute Animal Care and Use Committee. Dry eye was induced in murine eyes using a Controlled Environment Chamber (CEC) which exposes the mice to high-flow desiccated air. […]
(§7) Freshly excised corneas were washed in PBS, fixed in acetone for 15 minutes and then double stained with CD31 and LYVE-1 as described previously. To analyze infiltration of CD11b^+/LYVE-1 cells, corneas from three mice from each group were taken and cells were counted in 5-6 areas in the periphery ([…] area from the limbus) of each cornea in a masked fashion, using epifluorescence microscope (model E800; Nikon, Melville, N.Y.) at 40× magnification. The mean number of cells was obtained by averaging the total number of cells in all the areas studied and the result was expressed as the number of positive cells per mm^2.
as §5

DED mice [5] = experiment: Corneal lymphangiogenesis (lymphatic growth) in DED mice; details: in vivo blockade of VEGF-C in DED mice
From the text: as §6, §7
Morphology of lymphatics was analyzed using an automated image analysis program written with Matlab (The Mathworks, Inc., Natick, Mass.). […] The resultant isolated lymphatic vessels were analyzed morphologically using two metrices, Lymphatic Area (LA) and Lymphatic Caliber (LC). […]

DED mice [6] = experiment: Real-time PCR of pro-lymphangiogenic growth factors and receptors in DE corneas; assay type: in vivo; details: VEGF-C blockade in DED mice
From the text: as §1
as §3, with “The results were normalized by the cycle threshold (CT) of GAPDH and the relative mRNA level in the normal mice was used as the normalized control.” left out
as §4

[7] = real-time PCR, anti-VEGF-C treated vs untreated DED mice

VGX-100: human anti-VEGF-C monoclonal antibody produced by hybridoma ATCC PTA-4095, heavy/light chains SEQ ID NO: 48/49; from Vegenics
corneal epitheliopathy (DED mice [1]; VEGF-C blockade in DED mice): decrease
Corneal fluorescein staining (CFS) score (DED mice [1]; anti-VEGF-C Ab-treated vs untreated DED mice, days 5, 9 and 13, daily IP, 20 mg/kg): significantly decreased
clinical signs of DED / disease severity (DED mice [1]; daily IP): ameliorates
clinical signs of DED / disease severity (DED mice [1]; daily IP, listed as anti-VEGF-C): significant decrease
mRNA expression levels of proinflammatory cytokines in the conjunctiva (DED mice [2]; VEGF-C blockade in DED mice): decrease
IL-1α expression in conjunctiva (DED mice [2]; [7]): significantly decreased expression
IL-1β expression in conjunctiva (DED mice [2]; [7]): significantly decreased expression
IL-6 expression in conjunctiva (DED mice [2]; [7]): significantly decreased expression
IL-17 expression in conjunctiva (DED mice [2]; [7]): significantly decreased expression
IFN-γ (Th1 cells) in draining lymph nodes, induction of T-cell mediated autoimmune response (DED mice [3]): significantly decreased induction
IL-17 (Th17 cells) in draining lymph nodes, induction of T-cell mediated autoimmune response (DED mice [3]): significantly decreased induction
corneal infiltration of CD11b+ cells (DED mice [4]; VEGF-C blockade in DED mice): decrease
decrease of infiltration of CD11b+ cells in the DED corneas (DED mice [4]; day 14): 30%
corneal lymphangiogenesis / lymphatic growth (DED mice [5]): suppresses
corneal lymphangiogenesis / lymphatic growth (DED mice [5]; listed as anti-VEGF-C): suppression
expression of VEGF-C in DE corneas (DED mice [6]): decrease
expression of VEGF-D in DE corneas (DED mice [6]): decrease
expression of VEGFR-3 (R3) in DE corneas (DED mice [6]): decrease
